# Measured values taken from paper PMC11472313, “Development of Fragment-Based Inhibitors of the Bacterial Deacetylase LpxC with Low Nanomolar Activity” (Journal of Medicinal Chemistry, 2024).
# Tests used:
# [1] = target: T1, E. coli LpxC C63A (Escherichia coli, UniProt P0A725, C63A); experiment: fluorescence-based E. coli LpxC C63A enzyme inhibition assay; assay type: biochemical; conditions: Ki E. coli LpxC C63A, from IC50 via Cheng–Prusoff
# T1 construct: made in house; host or cells: E. coli BL21(DE3)
# T1 sequence (P0A725 whole entry C63A): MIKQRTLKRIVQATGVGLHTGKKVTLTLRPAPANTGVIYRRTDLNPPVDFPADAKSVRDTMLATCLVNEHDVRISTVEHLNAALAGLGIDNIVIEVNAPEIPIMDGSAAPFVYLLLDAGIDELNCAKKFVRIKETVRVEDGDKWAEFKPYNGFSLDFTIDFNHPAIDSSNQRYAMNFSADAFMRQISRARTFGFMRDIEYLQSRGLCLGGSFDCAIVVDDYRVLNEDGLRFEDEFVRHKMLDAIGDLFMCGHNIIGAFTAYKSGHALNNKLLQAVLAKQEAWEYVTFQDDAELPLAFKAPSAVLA
# Experimental: In order to determine the inhibitory activities of the compounds of interest toward E. coli LpxC, a fluorescence-based enzyme assay was deployed, in which the formed deacetylated natural product UDP-3-O-[(R)-3-hydroxymyristoyl]glucosamine (2) is transformed into a fluorescent isoindole with o-phthaldialdehyde and 2-mercaptoethanol.[48],[49] […] The KM of E. coli LpxC C63A was determined experimentally using a mass spectrometry-based LpxC assay (Figure S8, Supporting Information, vide infra).
# A fluorescence-based microplate assay for LpxC activity was performed as described by Clements et al.[48] The wells in a black, nonbinding, 96-well fluorescence microplate (Greiner Bio One, Frickenhausen) were filled with 93 μL of 26.9 μM UDP-3-O-[(R)-3-hydroxymyristoyl]-N-acetylglucosamine in assay buffer [40 mM sodium morpholinoethanesulfonic acid (pH 6.0), 80 μM dithiothreitol, 0.02% Brij 35]. In order to assay the inhibitors at final concentrations from 20 nM up to 20 μM, 2 μL of a respective dilution of the compounds in DMSO were added. The addition of 5 μL of a solution of purified LpxC (10 μg mL^–1) in assay buffer led to final concentrations of 25 μM UDP-3-O-[(R)-3-hydroxymyristoyl]-N-acetylglucosamine, 15 nM E. coli LpxC C63A, 2% DMSO, and from 20 nM up to 20 μM inhibitor. The microplate was incubated for 30 min at 37 °C in a plate shaker. Then, the biochemical reaction was stopped by adding 40 μL of 0.625 M sodium hydroxide. The reaction mixture was further incubated for 10 min and neutralized by adding 40 μL of 0.625 M acetic acid. The deacetylated product UDP-3-O-[(R)-3-hydroxymyristoyl]glucosamine was converted into a fluorescing isoindole by adding 120 μL of an o-phthaldialdehyde-2-mercaptoethanol solution, which was prepared by dissolving 10 mg of o-phthaldialdehyde in 1 mL of methanol, diluting the mixture with 24 mL of a sodium borate buffer (0.1 M), and finally adding 2.5 μL of 2-mercaptoethanol.[49] Fluorescence was measured with a TriStar^2 S LB 942 plate reader (Berthold, Bad Wildbad) at 340 nm excitation and 460 nm emission wavelengths. Each assay was performed at least three times on separate days. The IC50 values were calculated via Probit-log concentration graphs with the aid of the software Origin and were subsequently converted into Ki values using the Cheng–Prusoff equation.[75],[76]
# [2] = test system: E. coli BL21(DE3); experiment: MIC, broth microdilution; assay type: cell-based; conditions: Escherichia coli, 20 h, 37 °C, LB
# Experimental: (§1) Besides measuring the inhibitory activities toward E. coli LpxC C63A, the antibacterial activities of the synthesized hydroxamic acids were evaluated by determining their minimal inhibitory concentrations (MIC) in broth dilution tests as well as by performing disc diffusion assays (Table 1).
# (§2) The MIC values of the compounds were determined by means of the microdilution method using 96-well plates.
# (§3) The overnight suspension was diluted 1:1000 in fresh LB. 10 μL of a 2-fold dilution series of the compounds in DMSO and 90 μL of LB were dispensed to each well of a 96-well plate. Then, 100 μL of the inoculated medium was added, resulting in 5 × 10^5 cfu mL^–1, 5% DMSO, and a final concentration range of the test compounds between 64 and 0.016 μg mL^–1. The plates were incubated for 20 h at 37 °C. The MIC was defined as the lowest concentration of the compounds that prevented visible growth after incubation. Each assay was performed at least three times on separate days.
# [3] = test system: E. coli D22; experiment: MIC, broth microdilution; assay type: cell-based; conditions: Escherichia coli, 20 h, 37 °C, LB
# Experimental: as §1, §2, §3
# [4] = test system: E. coli BL21(DE3); experiment: disc diffusion assay; assay type: cell-based; conditions: 0.15 μmol per 6 mm disc
# Experimental: as §1
# (§4) The disc diffusion assays against E. coli BL21(DE3) and the defective strain E. coli D22 were performed as follows: liquid cultures of the bacteria were grown overnight in lysogeny broth (LB)[73] at 37 °C and 200 rpm. 150 μL of an overnight cell suspension was spread evenly onto LB agar plates. 0.15 μmol of each compound (dissolved in 10 or 15 μL DMSO) were applied onto circular filter paper (Ø = 6 mm, Cytiva). Pure DMSO, serving as a negative control, and CHIR-090, serving as a positive control, were also spotted. The agar plates were incubated overnight at 37 °C, and the diameter of the zone of growth inhibition was measured for each compound. Each assay was performed at least three times on separate days.
# [5] = test system: E. coli D22; experiment: disc diffusion assay; assay type: cell-based; conditions: 0.15 μmol per 6 mm disc
# Experimental: as §1, §4
SMILES,Ki [1] [nM],MIC [2] [µg/mL],MIC [3] [µg/mL],Inhibition zone E. coli BL21(DE3) [4] [mm],Inhibition zone E. coli D22 [5] [mm]
"O=C(NO)[C@@H](COCc1ccccc1)OCc1ccc(C#Cc2ccc(CN3CCOCC3)cc2)cc1 [(R)-11a, (R)-3-(Benzyloxy)-N-hydroxy-2-[(4-{[4-(morpholinomethyl)phenyl]ethynyl}benzyl)oxy]propanamide]",3620 ± 640,> 32,2,≤6,15.7 ± 1.2
"O=C(NO)[C@@H](CNCc1ccccc1)OCc1ccc(C#Cc2ccc(CN3CCOCC3)cc2)cc1 [(R)-12a, (R)-3-(Benzylamino)-N-hydroxy-2-[(4-{[4-(morpholinomethyl)phenyl]ethynyl}benzyl)oxy]propanamide]",5900 ± 2020,32,4,10.7 ± 1.2,20.0 ± 1.8
"O=C(NC[C@@H](OCc1ccc(C#Cc2ccc(CN3CCOCC3)cc2)cc1)C(=O)NO)c1ccccc1 [(R)-13a, (R)-N-{3-(Hydroxyamino)-2-[(4-{[4-(morpholinomethyl)phenyl]ethynyl}benzyl)oxy]-3-oxopropyl}benzamide]",2560 ± 1080,,4,9.7 ± 0.6,18.0 ± 2.0
O=C(NC[C@@H](OCc1ccc(C#Cc2ccc(CN3CCOCC3)cc2)cc1)C(=O)NO)c1ccc(-c2ccccc2)cc1 [(R)-13b],> 2540,> 16,> 16,≤6,≤6
O=C(NC[C@@H](OCc1ccc(C#Cc2ccc(CN3CCOCC3)cc2)cc1)C(=O)NO)c1cccc(-c2ccccc2)c1 [(R)-13c],> 2540,> 16,> 16,≤6,≤6
O=C(NC[C@@H](OCc1ccc(C#Cc2ccc(CN3CCOCC3)cc2)cc1)C(=O)NO)c1ccc(Oc2ccccc2)cc1 [(R)-13d],> 2540,> 16,> 16,≤6,≤6
O=C(NC[C@@H](OCc1ccc(C#Cc2ccc(CN3CCOCC3)cc2)cc1)C(=O)NO)c1ccc2ccccc2n1 [(R)-13e],> 2540,> 16,8,≤6,12.7 ± 1.6
O=C(NC[C@@H](OCc1ccc(C#Cc2ccc(CN3CCOCC3)cc2)cc1)C(=O)NO)c1cnc2ccccc2c1 [(R)-13f],> 2540,> 16,> 16,≤6,10.3 ± 1.2
O=C(NC[C@@H](OCc1ccc(C#Cc2ccc(CN3CCOCC3)cc2)cc1)C(=O)NO)c1cc2ccccc2[nH]1 [(R)-13g],> 2540,> 16,16,≤6,9.0 ± 1.0
O=C(NC[C@@H](OCc1ccc(C#Cc2ccc(CN3CCOCC3)cc2)cc1)C(=O)NO)c1ccc2[nH]ccc2c1 [(R)-13j],1150 ± 317,> 16,16,≤6,11.7 ± 1.2
O=C(NC[C@@H](OCc1ccc(C#Cc2ccc(CN3CCOCC3)cc2)cc1)C(=O)NO)c1cc(-c2ccccc2)[nH]n1 [(R)-13m],> 2540,> 16,> 16,≤6,9.7 ± 1.3
"O=C(NO)[C@@H](CN(Cc1ccccc1)Cc1ccccc1)OCc1ccc(C#Cc2ccc(CN3CCOCC3)cc2)cc1 [(R)-37, (R)-3-(Dibenzylamino)-N-hydroxy-2-[(4-{[4-(morpholinomethyl)phenyl]ethynyl}benzyl)oxy]propanamide]",> 2540,> 16,> 16,≤6,≤6
